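These data come from cells grown in 96-well plates and exposed to compound for 48 hours at five concentrations. Abbreviation: GI50, concentration required for 50% inhibition of growth.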 Activity calls are given as the source filed them. Rule as the data show it: active = GI50 up to about 1.1 µM and inactive = higher.
Assays:
Experiment in all cases: NCI-60 cell line screen, 48 h
HCT-15 = system: HCT-15
TK-10 = system: TK-10
U-251 = system: U-251
SF-268 = system: SF-268
OVCAR-3 = system: OVCAR-3
UACC-62 = system: UACC-62
PC-3 = system: PC-3
UACC-257 = system: UACC-257
RPMI-8226 = system: RPMI-8226
NCI/ADR-RES = system: NCI/ADR-RES
SK-MEL-28 = system: SK-MEL-28
SK-MEL-5 = system: SK-MEL-5
SNB-75 = system: SNB-75
SR = system: SR
MOLT-4 = system: MOLT-4
Malme-3M = system: Malme-3M
HT-29 = system: HT-29
NCI-H460 = system: NCI-H460
IGROV-1 = system: IGROV-1
EKVX = system: EKVX
COLO 205 = system: COLO 205
A549 = system: A549
OVCAR-4 = system: OVCAR-4
SK-MEL-2 = system: SK-MEL-2
LOX IMVI = system: LOX IMVI
SF-539 = system: SF-539
MCF7 = system: MCF7
BT-549 = system: BT-549
HL-60 = system: HL-60
SN12C = system: SN12C
KM12 = system: KM12
MDA-N = system: MDA-N
OVCAR-8 = system: OVCAR-8
RXF 393 = system: RXF 393
786-0 = system: 786-0
NCI-H522 = system: NCI-H522
ACHN = system: ACHN
SNB-19 = system: SNB-19
MDA-MB-231 = system: MDA-MB-231
NCI-H23 = system: NCI-H23
M14 = system: M14
MDA-MB-435 = system: MDA-MB-435
SK-OV-3 = system: SK-OV-3
HCC 2998 = system: HCC 2998
SW-620 = system: SW-620
NCI-H226 = system: NCI-H226
CCRF-CEM = system: CCRF-CEM
T47D = system: T47D
UO-31 = system: UO-31
OVCAR-5 = system: OVCAR-5
K562 = system: K562
HCT-116 = system: HCT-116
DU-145 = system: DU-145
HOP-92 = system: HOP-92
Hs-578T = system: Hs-578T
HOP-62 = system: HOP-62
SF-295 = system: SF-295
CAKI-1 = system: CAKI-1

O=C(O)CN(CCNC(=O)OCC1c2ccccc2-c2ccccc21)CCNC(=O)OCC1c2ccccc2-c2ccccc21
GI50 (HCT-15): 27.2 µM | GI50 (TK-10): 29.1 µM (inactive) | GI50 (U-251): 20.1 µM (inactive) | GI50 (SF-268): 19 µM (inactive) | GI50 (OVCAR-3): 18.1 µM (inactive) | GI50 (UACC-62): 23.7 µM (inactive) | GI50 (PC-3): 24 µM (inactive) | GI50 (UACC-257): 29.2 µM (inactive) | GI50 (RPMI-8226): 25.4 µM (inactive) | GI50 (NCI/ADR-RES): 45.2 µM (inactive) | GI50 (SK-MEL-28): 25 µM (inactive) | GI50 (SK-MEL-5): 19.6 µM (inactive) | GI50 (SNB-75): 29.6 µM (inactive) | GI50 (SR): 24.9 µM (inactive) | GI50 (MOLT-4): 23.4 µM (inactive) | GI50 (Malme-3M): 22.3 µM (inactive) | GI50 (HT-29): 17.5 µM (inactive) | GI50 (NCI-H460): 19.2 µM (inactive) | GI50 (IGROV-1): 20.6 µM (inactive) | GI50 (EKVX): 23.7 µM (inactive) | GI50 (COLO 205): 20.8 µM (inactive) | GI50 (A549): 23.3 µM (inactive) | GI50 (OVCAR-4): 27.1 µM (inactive) | GI50 (SK-MEL-2): 22.9 µM (inactive) | GI50 (LOX IMVI): 18.1 µM (inactive) | GI50 (SF-539): 25.4 µM (inactive) | GI50 (MCF7): 18 µM (inactive) | GI50 (BT-549): 27.2 µM (inactive) | GI50 (HL-60): 24.6 µM (inactive) | GI50 (SN12C): 25 µM (inactive) | GI50 (KM12): 18.6 µM (inactive) | GI50 (MDA-N): 20 µM (inactive) | GI50 (OVCAR-8): 20.1 µM (inactive) | GI50 (RXF 393): 36.1 µM (inactive) | GI50 (786-0): 20.1 µM (inactive) | GI50 (NCI-H522): 17.2 µM (inactive) | GI50 (ACHN): 20.6 µM (inactive) | GI50 (SNB-19): 29.6 µM (inactive) | GI50 (MDA-MB-231): 17.4 µM (inactive) | GI50 (NCI-H23): 24.8 µM (inactive) | GI50 (M14): 28.8 µM (inactive) | GI50 (MDA-MB-435): 19.1 µM (inactive) | GI50 (SK-OV-3): 32.2 µM (inactive) | GI50 (HCC 2998): 35.6 µM (inactive) | GI50 (SW-620): 21.2 µM (inactive) | GI50 (NCI-H226): 33.3 µM (inactive) | GI50 (CCRF-CEM): 24.5 µM (inactive) | GI50 (T47D): 20.1 µM (inactive) | GI50 (UO-31): 22.1 µM (inactive) | GI50 (OVCAR-5): 33.3 µM (inactive) | GI50 (K562): 19 µM (inactive) | GI50 (HCT-116): 17.7 µM (inactive) | GI50 (DU-145): 19.9 µM (inactive) | GI50 (HOP-92): 22.1 µM (inactive) | GI50 (Hs-578T): 43.9 µM (inactive) | GI50 (HOP-62): 21.3 µM (inactive) | GI50 (SF-295): 25 µM (inactive)

c1ccc(-c2sc(-c3cccs3)cc2Cc2cccs2)cc1
GI50 (HCT-15): > 10 µM | GI50 (TK-10): > 10 µM (inactive) | GI50 (SF-268): > 10 µM (inactive) | GI50 (UACC-62): > 10 µM (inactive) | GI50 (PC-3): > 10 µM (inactive) | GI50 (UACC-257): > 10 µM (inactive) | GI50 (RPMI-8226): > 10 µM (inactive) | GI50 (NCI/ADR-RES): > 10 µM (inactive) | GI50 (SK-MEL-28): > 10 µM (inactive) | GI50 (SK-MEL-5): > 10 µM (inactive) | GI50 (SNB-75): > 10 µM (inactive) | GI50 (SR): > 10 µM (inactive) | GI50 (MOLT-4): > 10 µM (inactive) | GI50 (Malme-3M): > 10 µM (inactive) | GI50 (HT-29): > 10 µM (inactive) | GI50 (NCI-H460): > 10 µM (inactive) | GI50 (IGROV-1): > 10 µM (inactive) | GI50 (EKVX): > 10 µM (inactive) | GI50 (COLO 205): > 10 µM (inactive) | GI50 (A549): > 10 µM (inactive) | GI50 (OVCAR-4): > 10 µM (inactive) | GI50 (LOX IMVI): > 10 µM (inactive) | GI50 (SF-539): > 10 µM (inactive) | GI50 (MCF7): > 10 µM (inactive) | GI50 (BT-549): > 10 µM (inactive) | GI50 (HL-60): > 10 µM (inactive) | GI50 (SN12C): > 10 µM (inactive) | GI50 (KM12): > 10 µM (inactive) | GI50 (MDA-N): > 10 µM (inactive) | GI50 (OVCAR-8): > 10 µM (inactive) | GI50 (RXF 393): > 10 µM (inactive) | GI50 (786-0): > 10 µM (inactive) | GI50 (NCI-H522): > 10 µM (inactive) | GI50 (ACHN): > 10 µM (inactive) | GI50 (SNB-19): > 10 µM (inactive) | GI50 (MDA-MB-231): > 10 µM (inactive) | GI50 (NCI-H23): > 10 µM (inactive) | GI50 (M14): > 10 µM (inactive) | GI50 (MDA-MB-435): > 10 µM (inactive) | GI50 (SK-OV-3): > 10 µM (inactive) | GI50 (HCC 2998): > 10 µM (inactive) | GI50 (SW-620): > 10 µM (inactive) | GI50 (NCI-H226): > 10 µM (inactive) | GI50 (CCRF-CEM): > 10 µM (inactive) | GI50 (T47D): > 10 µM (inactive) | GI50 (UO-31): > 10 µM (inactive) | GI50 (K562): > 10 µM (inactive) | GI50 (HCT-116): > 10 µM (inactive) | GI50 (DU-145): > 10 µM (inactive) | GI50 (HOP-92): > 10 µM (inactive) | GI50 (CAKI-1): > 10 µM (inactive) | GI50 (Hs-578T): > 10 µM (inactive) | GI50 (HOP-62): > 10 µM (inactive) | GI50 (SF-295): > 10 µM (inactive)

COc1cc(CCCl)c(CC2=NCCc3cc(OC)c(OC)cc32)cc1OC
GI50 (TK-10): 30.2 µM (inactive) | GI50 (U-251): > 100 µM (inactive) | GI50 (SF-268): 97.3 µM (inactive) | GI50 (OVCAR-3): > 100 µM (inactive) | GI50 (UACC-62): 43.3 µM (inactive) | GI50 (PC-3): 41.1 µM (inactive) | GI50 (UACC-257): > 100 µM (inactive) | GI50 (RPMI-8226): 39.4 µM (inactive) | GI50 (NCI/ADR-RES): > 100 µM (inactive) | GI50 (SK-MEL-28): > 100 µM (inactive) | GI50 (SK-MEL-5): 67.8 µM (inactive) | GI50 (SNB-75): > 100 µM (inactive) | GI50 (SR): 23 µM (inactive) | GI50 (MOLT-4): > 100 µM (inactive) | GI50 (HT-29): 32.5 µM (inactive) | GI50 (NCI-H460): > 100 µM (inactive) | GI50 (IGROV-1): 29.4 µM (inactive) | GI50 (EKVX): 88.9 µM (inactive) | GI50 (COLO 205): 47.4 µM (inactive) | GI50 (A549): > 100 µM (inactive) | GI50 (OVCAR-4): > 100 µM (inactive) | GI50 (SK-MEL-2): > 100 µM (inactive) | GI50 (LOX IMVI): 21.1 µM (inactive) | GI50 (SF-539): 4.61 µM (inactive) | GI50 (MCF7): 88.9 µM (inactive) | GI50 (BT-549): > 100 µM (inactive) | GI50 (HL-60): 4.41 µM (inactive) | GI50 (SN12C): 80.9 µM (inactive) | GI50 (KM12): 71.1 µM (inactive) | GI50 (MDA-N): 70.1 µM (inactive) | GI50 (OVCAR-8): > 100 µM (inactive) | GI50 (RXF 393): 32.3 µM (inactive) | GI50 (ACHN): > 100 µM (inactive) | GI50 (SNB-19): > 100 µM (inactive) | GI50 (MDA-MB-231): 55.7 µM (inactive) | GI50 (NCI-H23): > 100 µM (inactive) | GI50 (M14): 50.1 µM (inactive) | GI50 (MDA-MB-435): 89.9 µM (inactive) | GI50 (SK-OV-3): > 100 µM (inactive) | GI50 (HCC 2998): 61 µM (inactive) | GI50 (SW-620): 85.5 µM (inactive) | GI50 (NCI-H226): > 100 µM (inactive) | GI50 (CCRF-CEM): 45.7 µM (inactive) | GI50 (T47D): > 100 µM (inactive) | GI50 (UO-31): 69.3 µM (inactive) | GI50 (OVCAR-5): > 100 µM (inactive) | GI50 (K562): 31 µM (inactive) | GI50 (HCT-116): 24.4 µM (inactive) | GI50 (DU-145): > 100 µM (inactive) | GI50 (HOP-92): > 100 µM (inactive) | GI50 (CAKI-1): 34 µM (inactive) | GI50 (Hs-578T): 14.9 µM (inactive) | GI50 (HOP-62): 20.8 µM (inactive) | GI50 (SF-295): 19.8 µM (inactive)

Source: ChEMBL document CHEMBL1201862, “PubChem BioAssay data set” (2004)
